Legend:
barnyard grass [1] = assay: Test Example 3: herbicidal effect by foliage application, Wagner pot (Table 18, symbol H); type: in vivo, barnyard grass (Echinochloa crus-galli); settings: 320 g/ha
How it was run: (§1)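 Plants were sown in alluvial soil held under 0.1–0.5 cm standing water and grown 14 days in a greenhouse at 25–30 °C. An emulsifiable formulation, water-diluted to the set dose, was then sprayed onto the foliage, and effects were scored three weeks later using previously defined criteria.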

Chinese sprangletop = assay: Test Example 3: herbicidal effect by foliage application, Wagner pot (Table 18, symbol D); type: in vivo, chinese sprangletop (Leptochloa chinensis); settings: 320 g/ha
How it was run: as §1

rice flat sedge = assay: Test Example 3: herbicidal effect by foliage application, Wagner pot (Table 18, symbol E); type: in vivo, rice flat sedge (Cyperus iria); settings: 320 g/ha
How it was run: as §1

southern crabgrass [2] = assay: Test Example 4: herbicidal effect by soil treatment (Table 19, symbol F); type: in vivo, southern crabgrass (Digitaria ciliaris); settings: amount of applied herbicide 320 g/ha
How it was run: (§2)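 Scoring uses the grading scale of an earlier test, three weeks post-application. Treatment consists of spraying a diluted emulsion formulation across the surface of sterilized diluvial soil in which seeds are buried near 1.5 cm deep; boxes are kept in a greenhouse between 25° C. and 30° C.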

green foxtail [3] = assay: Test Example 4: herbicidal effect by soil treatment (Table 19, symbol G); type: in vivo, green foxtail (Setaria viridis); settings: amount of applied herbicide 320 g/ha
How it was run: as §2

barnyard grass [4] = assay: Test Example 4: herbicidal effect by soil treatment (Table 19, symbol H); type: in vivo, barnyard grass (Echinochloa crus-galli); settings: amount of applied herbicide 320 g/ha
How it was run: as §2

wild oat [5] = assay: Test Example 4: herbicidal effect by soil treatment (Table 19, symbol I); type: in vivo, wild oat (Avena fatua); settings: amount of applied herbicide 320 g/ha
How it was run: as §2

blackgrass [6] = assay: Test Example 4: herbicidal effect by soil treatment (Table 19, symbol J); type: in vivo, blackgrass (Alopecurus myosuroides); settings: amount of applied herbicide 320 g/ha
How it was run: as §2

Italian ryegrass [7] = assay: Test Example 4: herbicidal effect by soil treatment (Table 19, symbol K); type: in vivo, Italian ryegrass (Lolium multiflorum); settings: amount of applied herbicide 320 g/ha
How it was run: as §2

windgrass [8] = assay: Test Example 4: herbicidal effect by soil treatment (Table 19, symbol L); type: in vivo, windgrass (Apera spica-venti); settings: amount of applied herbicide 320 g/ha
How it was run: as §2

velvetleaf [9] = assay: Test Example 4: herbicidal effect by soil treatment (Table 19, symbol M); type: in vivo, velvetleaf (Abutilon theophrasti); settings: amount of applied herbicide 320 g/ha
How it was run: as §2

redroot pigweed [10] = assay: Test Example 4: herbicidal effect by soil treatment (Table 19, symbol N); type: in vivo, redroot pigweed (Amaranthus retroflexus); settings: amount of applied herbicide 320 g/ha
How it was run: as §2

lambsquarters [11] = assay: Test Example 4: herbicidal effect by soil treatment (Table 19, symbol O); type: in vivo, lambsquarters (Chenopodium album); settings: amount of applied herbicide 320 g/ha
How it was run: as §2

chickweed [12] = assay: Test Example 4: herbicidal effect by soil treatment (Table 19, symbol P); type: in vivo, common chickweed (Stellaria media); settings: amount of applied herbicide 320 g/ha
How it was run: as §2

false cleavers [13] = assay: Test Example 4: herbicidal effect by soil treatment (Table 19, symbol Q); type: in vivo, false cleavers (Galium spurium); settings: amount of applied herbicide 320 g/ha
How it was run: as §2

persian speedwell [14] = assay: Test Example 4: herbicidal effect by soil treatment (Table 19, symbol R); type: in vivo, Persian speedwell (Veronica persica); settings: amount of applied herbicide 320 g/ha
How it was run: as §2

southern crabgrass [15] = assay: Test Example 5: herbicidal effect by foliage application, plastic box (Table 20, symbol F); type: in vivo, southern crabgrass (Digitaria ciliaris); settings: foliage application, 320 g/ha, three weeks after application
How it was run: (§3)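 Post-emergence foliar test in sterilized diluvial soil. Compound applied as water-diluted emulsion at a predetermined rate to 14-day-old plants; evaluation at three weeks.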

green foxtail [16] = assay: Test Example 5: herbicidal effect by foliage application, plastic box (Table 20, symbol G); type: in vivo, green foxtail (Setaria viridis); settings: foliage application, 320 g/ha, three weeks after application
How it was run: as §3

barnyard grass [17] = assay: Test Example 5: herbicidal effect by foliage application, plastic box (Table 20, symbol H); type: in vivo, barnyard grass (Echinochloa crus-galli); settings: foliage application, 320 g/ha, three weeks after application
How it was run: as §3

wild oat [18] = assay: Test Example 5: herbicidal effect by foliage application, plastic box (Table 20, symbol I); type: in vivo, wild oat (Avena fatua); settings: foliage application, 320 g/ha, three weeks after application
How it was run: as §3

blackgrass [19] = assay: Test Example 5: herbicidal effect by foliage application, plastic box (Table 20, symbol J); type: in vivo, blackgrass (Alopecurus myosuroides); settings: foliage application, 320 g/ha, three weeks after application
How it was run: as §3

Italian ryegrass [20] = assay: Test Example 5: herbicidal effect by foliage application, plastic box (Table 20, symbol K); type: in vivo, Italian ryegrass (Lolium multiflorum); settings: foliage application, 320 g/ha, three weeks after application
How it was run: as §3

windgrass [21] = assay: Test Example 5: herbicidal effect by foliage application, plastic box (Table 20, symbol L); type: in vivo, windgrass (Apera spica-venti); settings: foliage application, 320 g/ha, three weeks after application
How it was run: as §3

velvetleaf [22] = assay: Test Example 5: herbicidal effect by foliage application, plastic box (Table 20, symbol M); type: in vivo, velvetleaf (Abutilon theophrasti); settings: foliage application, 320 g/ha, three weeks after application
How it was run: as §3

redroot pigweed [23] = assay: Test Example 5: herbicidal effect by foliage application, plastic box (Table 20, symbol N); type: in vivo, redroot pigweed (Amaranthus retroflexus); settings: foliage application, 320 g/ha, three weeks after application
How it was run: as §3

lambsquarters [24] = assay: Test Example 5: herbicidal effect by foliage application, plastic box (Table 20, symbol O); type: in vivo, lambsquarters (Chenopodium album); settings: foliage application, 320 g/ha, three weeks after application
How it was run: as §3

chickweed [25] = assay: Test Example 5: herbicidal effect by foliage application, plastic box (Table 20, symbol P); type: in vivo, common chickweed (Stellaria media); settings: foliage application, 320 g/ha, three weeks after application
How it was run: as §3

false cleavers [26] = assay: Test Example 5: herbicidal effect by foliage application, plastic box (Table 20, symbol Q); type: in vivo, false cleavers (Galium spurium); settings: foliage application, 320 g/ha, three weeks after application
How it was run: as §3

persian speedwell [27] = assay: Test Example 5: herbicidal effect by foliage application, plastic box (Table 20, symbol R); type: in vivo, Persian speedwell (Veronica persica); settings: foliage application, 320 g/ha, three weeks after application
How it was run: as §3

CON=C(C)c1ccc(-c2sc3ccccc3c2-c2c(O)c(C)nn(C)c2=O)cc1 [1-043]
herbicidal effect on H (barnyard grass), rating 0-5 (barnyard grass [1]): 5 (Herbicidal rate of 90% or more (almost completely withered))
herbicidal effect on D (Chinese sprangletop), rating 0-5 (Chinese sprangletop): 5 (Herbicidal rate of 90% or more (almost completely withered))
herbicidal effect on E (rice flat sedge), rating 0-5 (rice flat sedge): 0 (Herbicidal rate of 5% or less (almost no effect))
herbicidal effect rating, F: southern crabgrass (southern crabgrass [2]): 0 (Herbicidal rate of 5% or less (almost no effect))
herbicidal effect rating, G: green foxtail (green foxtail [3]): 5 (Herbicidal rate of 90% or more (almost completely withered))
herbicidal effect rating, H: barnyard grass (barnyard grass [4]): 3 (Herbicidal rate of 40% or more and less than 70%)
herbicidal effect rating, I: wild oat (wild oat [5]): 0 (Herbicidal rate of 5% or less (almost no effect))
herbicidal effect rating, J: blackgrass (blackgrass [6]): 0 (Herbicidal rate of 5% or less (almost no effect))
herbicidal effect rating, K: Italian ryegrass (Italian ryegrass [7]): 5 (Herbicidal rate of 90% or more (almost completely withered))
herbicidal effect rating, L: windgrass (windgrass [8]): 0 (Herbicidal rate of 5% or less (almost no effect))
herbicidal effect rating, M: velvetleaf (velvetleaf [9]): 0 (Herbicidal rate of 5% or less (almost no effect))
herbicidal effect rating, N: redroot pigweed (redroot pigweed [10]): 5 (Herbicidal rate of 90% or more (almost completely withered))
herbicidal effect rating, O: lambsquarters (lambsquarters [11]): 5 (Herbicidal rate of 90% or more (almost completely withered))
herbicidal effect rating, P: chickweed (chickweed [12]): 4 (Herbicidal rate of 70% or more and less than 90%)
herbicidal effect rating, Q: false cleavers (false cleavers [13]): 0 (Herbicidal rate of 5% or less (almost no effect))
herbicidal effect rating, R: persian speedwell (persian speedwell [14]): 4 (Herbicidal rate of 70% or more and less than 90%)
herbicidal effect grade, F: southern crabgrass (southern crabgrass [15]): 4 (Herbicidal rate of 70% or more and less than 90%)
herbicidal effect grade, G: green foxtail (green foxtail [16]): 4 (Herbicidal rate of 70% or more and less than 90%)
herbicidal effect grade, H: barnyard grass (barnyard grass [17]): 3 (Herbicidal rate of 40% or more and less than 70%)
herbicidal effect grade, I: wild oat (wild oat [18]): 2 (Herbicidal rate of 20% or more and less than 40%)
herbicidal effect grade, J: blackgrass (blackgrass [19]): 4 (Herbicidal rate of 70% or more and less than 90%)
herbicidal effect grade, K: Italian ryegrass (Italian ryegrass [20]): 5 (Herbicidal rate of 90% or more (almost completely withered))
herbicidal effect grade, L: windgrass (windgrass [21]): 1 (Herbicidal rate of 5% or more and less than 20%)
herbicidal effect grade, M: velvetleaf (velvetleaf [22]): 5 (Herbicidal rate of 90% or more (almost completely withered))
herbicidal effect grade, N: redroot pigweed (redroot pigweed [23]): 5 (Herbicidal rate of 90% or more (almost completely withered))
herbicidal effect grade, O: lambsquarters (lambsquarters [24]): 4 (Herbicidal rate of 70% or more and less than 90%)
herbicidal effect grade, P: chickweed (chickweed [25]): 5 (Herbicidal rate of 90% or more (almost completely withered))
herbicidal effect grade, Q: false cleavers (false cleavers [26]): 2 (Herbicidal rate of 20% or more and less than 40%)
herbicidal effect grade, R: persian speedwell (persian speedwell [27]): 5 (Herbicidal rate of 90% or more (almost completely withered))

CCCCOc1ccccc1-c1sc2ccccc2c1-c1c(OC(=O)CCC)c(C)nn(C)c1=O [1-023]
herbicidal effect on H (barnyard grass), rating 0-5 (barnyard grass [1]): 1 (Herbicidal rate of 5% or more and less than 20%)
herbicidal effect on D (Chinese sprangletop), rating 0-5 (Chinese sprangletop): 0 (Herbicidal rate of 5% or less (almost no effect))
herbicidal effect on E (rice flat sedge), rating 0-5 (rice flat sedge): 3 (Herbicidal rate of 40% or more and less than 70%)
herbicidal effect rating, F: southern crabgrass (southern crabgrass [2]): 0 (Herbicidal rate of 5% or less (almost no effect))
herbicidal effect rating, G: green foxtail (green foxtail [3]): 2 (Herbicidal rate of 20% or more and less than 40%)
herbicidal effect rating, H: barnyard grass (barnyard grass [4]): 0 (Herbicidal rate of 5% or less (almost no effect))
herbicidal effect rating, I: wild oat (wild oat [5]): 0 (Herbicidal rate of 5% or less (almost no effect))
herbicidal effect rating, J: blackgrass (blackgrass [6]): 0 (Herbicidal rate of 5% or less (almost no effect))
herbicidal effect rating, K: Italian ryegrass (Italian ryegrass [7]): 0 (Herbicidal rate of 5% or less (almost no effect))
herbicidal effect rating, L: windgrass (windgrass [8]): 0 (Herbicidal rate of 5% or less (almost no effect))
herbicidal effect rating, M: velvetleaf (velvetleaf [9]): 0 (Herbicidal rate of 5% or less (almost no effect))
herbicidal effect rating, N: redroot pigweed (redroot pigweed [10]): 0 (Herbicidal rate of 5% or less (almost no effect))
herbicidal effect rating, O: lambsquarters (lambsquarters [11]): 0 (Herbicidal rate of 5% or less (almost no effect))
herbicidal effect rating, P: chickweed (chickweed [12]): 0 (Herbicidal rate of 5% or less (almost no effect))
herbicidal effect rating, Q: false cleavers (false cleavers [13]): 0 (Herbicidal rate of 5% or less (almost no effect))
herbicidal effect rating, R: persian speedwell (persian speedwell [14]): 0 (Herbicidal rate of 5% or less (almost no effect))
herbicidal effect grade, F: southern crabgrass (southern crabgrass [15]): 0 (Herbicidal rate of 5% or less (almost no effect))
herbicidal effect grade, G: green foxtail (green foxtail [16]): 0 (Herbicidal rate of 5% or less (almost no effect))
herbicidal effect grade, H: barnyard grass (barnyard grass [17]): 0 (Herbicidal rate of 5% or less (almost no effect))
herbicidal effect grade, I: wild oat (wild oat [18]): 0 (Herbicidal rate of 5% or less (almost no effect))
herbicidal effect grade, J: blackgrass (blackgrass [19]): 0 (Herbicidal rate of 5% or less (almost no effect))
herbicidal effect grade, K: Italian ryegrass (Italian ryegrass [20]): 0 (Herbicidal rate of 5% or less (almost no effect))
herbicidal effect grade, L: windgrass (windgrass [21]): 0 (Herbicidal rate of 5% or less (almost no effect))
herbicidal effect grade, M: velvetleaf (velvetleaf [22]): 0 (Herbicidal rate of 5% or less (almost no effect))
herbicidal effect grade, N: redroot pigweed (redroot pigweed [23]): 0 (Herbicidal rate of 5% or less (almost no effect))
herbicidal effect grade, O: lambsquarters (lambsquarters [24]): 0 (Herbicidal rate of 5% or less (almost no effect))
herbicidal effect grade, P: chickweed (chickweed [25]): 5 (Herbicidal rate of 90% or more (almost completely withered))
herbicidal effect grade, Q: false cleavers (false cleavers [26]): 2 (Herbicidal rate of 20% or more and less than 40%)
herbicidal effect grade, R: persian speedwell (persian speedwell [27]): 3 (Herbicidal rate of 40% or more and less than 70%)

Reference: patent publication US20230085307A1, “PYRIDAZINONE COMPOUND AND HERBICIDE” (NISSAN CHEMICAL CORPORATION, priority 2019, published 2023)
